Results as given in patent publication US20200206196A1, “Antiviral Drugs” (priority 2017, published 2020).
Residues, ends and D or L forms follow the SMILES beside them.

Key:
[1] = test system: HeV; type: cell-based, Hendra virus
[2] = test system: HeV; type: cell-based, Hendra virus; remark: listed apart in the source
[3] = test system: NiV; type: cell-based, Nipah virus
[4] = test system: RSV; type: cell-based, RSV (strain A2)
[5] = test system: vesicular stomatitis virus (VSV); type: cell-based
[6] = test system: influenza A virus (A/WSN/33); type: cell-based, Influenza A/WSN/33 (H1N1)
[7] = test system: HeLa cells; assay: Alamar blue assay of metabolic activity; type: cell-based; details: HeLa cells treated for 26 h, vs vehicle or media
[8] = test system: HeV-F and HeV-G mediated cell-cell fusion; type: cell-based, Hendra virus
[9] = test system: HeV; type: cell-based, Hendra virus; remark: listed apart in the source
[10] = test system: HeV; type: cell-based, Hendra virus; remark: listed apart in the source
[11] = test system: HeLa cells; assay: Cell viability: relative cell numbers (DAPI nuclei count); details: 26 h post-treatment, concentrations resulting in antiviral activity

SMILES	HeV infection (HeV titres), dose response [1]	inhibition of viral protein synthesis (virus antigen levels per well) [2]	inhibition of virus-induced cell death (cell numbers per well) [2]	reduction in HeV titers [1]	reduction in virus titres, HeV [1]	reduction in virus titres, NiV [3]	reduction in virus titres, RSV [4]	reduction in virus titres, VSV [5]	reduction in virus titres, A/WSN/33 [6]	change in metabolic activity (Alamar blue) [7]	cell-cell fusion of target cells with HeV-F/HeV-G effector cells [8]	intracellular viral RNA levels [9]	viral protein production (P protein and N protein) [10]	impact on cell numbers [11]
CCOc1nc2cccc(C(=O)O)c2n1Cc1ccc(-c2ccccc2-c2nnn[nH]2)cc1 [Candesartan]	inhibited HeV infection in a dose-dependent manner													
CSCC[C@@H](C=O)NC(=O)[C@H](CC(C)C)NC(=O)[C@H](CC(C)C)NC(C)=O [calpain inhibitor II] (Ac-Leu-Leu-Met-aldehyde)		more effective than E64D	more effective than E64D											
CCCc1nc2c(C)cc(-c3nc4ccccc4n3C)cc2n1Cc1ccc(-c2ccccc2C(=O)O)cc1 [Telmisartan]	inhibited HeV infection in a dose-dependent manner			~95%	significant reduction in virus titres	significant reduction in virus titres	significant reduction in virus titres	significant reduction in virus titres	not for A/WSN/33	no significant change in metabolic activity	comparable to target cells treated with vehicle	significantly reduced intracellular viral RNA levels	almost completely abolished	mild impact on cell numbers
